Test results reported in PubChem BioAssay (NCI).
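Tested at 5 concentrations; 48 h exposure; 96-well plates; endpoints linearly interpolated, else capped at highest concentration. Definition used: TGI = concentration required for complete inhibition of growth.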 Where a SMILES comes first, the peptide text is derived from it. [ ]: non-standard residue; d: D form. The star is where a group is joined. Hyp = O=C(O)[CH]1C[CH](O)CN1; Cbz = O=C(OCc1ccccc1)*

Columns and labels:
Assay in all cases: DTP human tumour cell line panel, 48 h
TK-10 renal = tested on: TK-10 renal
MCF7 breast = tested on: MCF7 breast
U251 CNS = tested on: U251 CNS
IGROV1 ovarian = tested on: IGROV1 ovarian
OVCAR-5 ovarian = tested on: OVCAR-5 ovarian
NCI-H226 lung = tested on: NCI-H226 lung
HOP-62 NSCLC = tested on: HOP-62 NSCLC
NCI/ADR-RES ovarian = tested on: NCI/ADR-RES ovarian
SF-295 CNS = tested on: SF-295 CNS
OVCAR-4 ovarian = tested on: OVCAR-4 ovarian
HOP-92 NSCLC = tested on: HOP-92 NSCLC
MDA-MB-231 breast = tested on: MDA-MB-231 breast
BT-549 breast = tested on: BT-549 breast
SK-MEL-2 melanoma = tested on: SK-MEL-2 melanoma
NCI-H522 lung = tested on: NCI-H522 lung
SNB-19 CNS = tested on: SNB-19 CNS
SF-268 CNS = tested on: SF-268 CNS
OVCAR-8 ovarian = tested on: OVCAR-8 ovarian
T-47D breast = tested on: T-47D breast
A549 NSCLC = tested on: A549 NSCLC
A498 renal = tested on: A498 renal
HCT-15 colon = tested on: HCT-15 colon
LOX IMVI melanoma = tested on: LOX IMVI melanoma
HT29 colon = tested on: HT29 colon
SR leukemia = tested on: SR leukemia
SK-MEL-28 melanoma = tested on: SK-MEL-28 melanoma
HL-60(TB) leukemia = tested on: HL-60(TB) leukemia
HCC-2998 colon = tested on: HCC-2998 colon
UACC-62 melanoma = tested on: UACC-62 melanoma
NCI-H23 lung = tested on: NCI-H23 lung
OVCAR-3 ovarian = tested on: OVCAR-3 ovarian
MALME-3M melanoma = tested on: MALME-3M melanoma
K-562 leukemia = tested on: K-562 leukemia
PC-3 prostate = tested on: PC-3 prostate
SF-539 CNS = tested on: SF-539 CNS
EKVX NSCLC = tested on: EKVX NSCLC
MDA-N = tested on: MDA-N
NCI-H460 lung = tested on: NCI-H460 lung
MDA-MB-435 = tested on: MDA-MB-435
SK-OV-3 ovarian = tested on: SK-OV-3 ovarian
ACHN renal = tested on: ACHN renal
RPMI-8226 leukemia = tested on: RPMI-8226 leukemia
CCRF-CEM leukemia = tested on: CCRF-CEM leukemia
SNB-75 CNS = tested on: SNB-75 CNS
UO-31 renal = tested on: UO-31 renal
COLO 205 colon = tested on: COLO 205 colon
HS 578T breast = tested on: HS 578T breast
UACC-257 melanoma = tested on: UACC-257 melanoma
HCT-116 colon = tested on: HCT-116 colon
CAKI-1 renal = tested on: CAKI-1 renal
SN12C renal = tested on: SN12C renal
DU-145 prostate = tested on: DU-145 prostate
786-0 renal = tested on: 786-0 renal
RXF 393 renal = tested on: RXF 393 renal
KM12 colon = tested on: KM12 colon
MOLT-4 leukemia = tested on: MOLT-4 leukemia
SK-MEL-5 melanoma = tested on: SK-MEL-5 melanoma
M14 melanoma = tested on: M14 melanoma
SW-620 colon = tested on: SW-620 colon

COC(=O)C1=C(C(=O)OC)N(c2ccncc2)C(c2ccco2)=CC1c1ccccc1[N+](=O)[O-] (centres undefined)
TGI (TK-10 renal): 6.85 µM
TGI (MCF7 breast): 7.06 µM
TGI (U251 CNS): 10.7 µM
TGI (IGROV1 ovarian): 4.19 µM
TGI (OVCAR-5 ovarian): 30.6 µM
TGI (NCI-H226 lung): 30.3 µM
TGI (HOP-62 NSCLC): > 46.2 µM
TGI (NCI/ADR-RES ovarian): 56.1 µM
TGI (SF-295 CNS): 15.8 µM
TGI (OVCAR-4 ovarian): 15.7 µM
TGI (HOP-92 NSCLC): 32.4 µM
TGI (MDA-MB-231 breast): 27.5 µM
TGI (BT-549 breast): 25.4 µM
TGI (SK-MEL-2 melanoma): 36.1 µM
TGI (NCI-H522 lung): 5.06 µM
TGI (SNB-19 CNS): 41 µM
TGI (SF-268 CNS): 20.8 µM
TGI (OVCAR-8 ovarian): 28.8 µM
TGI (T-47D breast): 12.9 µM
TGI (A549 NSCLC): 31.3 µM
TGI (A498 renal): 14.1 µM
TGI (HCT-15 colon): 5.58 µM
TGI (LOX IMVI melanoma): 3.35 µM
TGI (HT29 colon): 3.95 µM
TGI (SR leukemia): 5.26 µM
TGI (SK-MEL-28 melanoma): 27.2 µM
TGI (HL-60(TB) leukemia): 6.06 µM
TGI (HCC-2998 colon): 3.7 µM
TGI (UACC-62 melanoma): 27 µM
TGI (NCI-H23 lung): 29.8 µM
TGI (OVCAR-3 ovarian): > 28.4 µM
TGI (MALME-3M melanoma): 18.7 µM
TGI (K-562 leukemia): > 100 µM
TGI (PC-3 prostate): 31 µM
TGI (SF-539 CNS): 3.6 µM
TGI (EKVX NSCLC): 15.9 µM
TGI (MDA-N): 7.51 µM
TGI (NCI-H460 lung): 14.7 µM
TGI (MDA-MB-435): > 39.8 µM
TGI (SK-OV-3 ovarian): 33.1 µM
TGI (ACHN renal): 3.47 µM
TGI (RPMI-8226 leukemia): 5.69 µM
TGI (CCRF-CEM leukemia): 7.43 µM
TGI (SNB-75 CNS): 16.3 µM
TGI (UO-31 renal): 8.21 µM
TGI (COLO 205 colon): 10.2 µM
TGI (HS 578T breast): 27.8 µM
TGI (UACC-257 melanoma): 4.25 µM
TGI (HCT-116 colon): 2.7 µM
TGI (CAKI-1 renal): 31.6 µM
TGI (SN12C renal): 9.72 µM
TGI (DU-145 prostate): 18 µM
TGI (786-0 renal): 2.94 µM
TGI (RXF 393 renal): 10.6 µM
TGI (KM12 colon): 3.38 µM
TGI (MOLT-4 leukemia): 6.17 µM

NC(=O)CNC(=O)C1CC(O)CN1C(=O)C1CCCN1C(=O)OCc1ccccc1 (stereo not drawn) (Cbz-Pro-[Hyp]-Gly-NH2; configuration not given here)
TGI (TK-10 renal): > 100 µM
TGI (MCF7 breast): > 100 µM
TGI (U251 CNS): > 100 µM
TGI (IGROV1 ovarian): > 100 µM
TGI (OVCAR-5 ovarian): > 100 µM
TGI (NCI-H226 lung): > 100 µM
TGI (HOP-62 NSCLC): > 100 µM
TGI (NCI/ADR-RES ovarian): > 100 µM
TGI (SK-MEL-5 melanoma): > 100 µM
TGI (SF-295 CNS): > 100 µM
TGI (OVCAR-4 ovarian): > 100 µM
TGI (MDA-MB-231 breast): > 100 µM
TGI (BT-549 breast): > 100 µM
TGI (SK-MEL-2 melanoma): > 100 µM
TGI (NCI-H522 lung): > 100 µM
TGI (SNB-19 CNS): > 100 µM
TGI (SF-268 CNS): > 100 µM
TGI (OVCAR-8 ovarian): > 100 µM
TGI (T-47D breast): > 100 µM
TGI (A549 NSCLC): > 100 µM
TGI (A498 renal): > 100 µM
TGI (HCT-15 colon): > 100 µM
TGI (LOX IMVI melanoma): > 100 µM
TGI (HT29 colon): > 100 µM
TGI (SR leukemia): > 100 µM
TGI (SK-MEL-28 melanoma): > 100 µM
TGI (HL-60(TB) leukemia): > 100 µM
TGI (M14 melanoma): > 100 µM
TGI (HCC-2998 colon): > 100 µM
TGI (UACC-62 melanoma): > 100 µM
TGI (NCI-H23 lung): > 100 µM
TGI (OVCAR-3 ovarian): > 100 µM
TGI (MALME-3M melanoma): > 100 µM
TGI (K-562 leukemia): > 100 µM
TGI (PC-3 prostate): > 100 µM
TGI (EKVX NSCLC): > 100 µM
TGI (MDA-N): > 100 µM
TGI (NCI-H460 lung): > 100 µM
TGI (MDA-MB-435): > 100 µM
TGI (SK-OV-3 ovarian): > 100 µM
TGI (ACHN renal): > 100 µM
TGI (RPMI-8226 leukemia): > 100 µM
TGI (CCRF-CEM leukemia): > 100 µM
TGI (SNB-75 CNS): > 100 µM
TGI (UO-31 renal): > 100 µM
TGI (COLO 205 colon): > 100 µM
TGI (HS 578T breast): > 100 µM
TGI (UACC-257 melanoma): > 100 µM
TGI (HCT-116 colon): > 100 µM
TGI (SW-620 colon): > 100 µM
TGI (SN12C renal): > 100 µM
TGI (DU-145 prostate): > 100 µM
TGI (786-0 renal): > 100 µM
TGI (RXF 393 renal): > 100 µM
TGI (KM12 colon): > 100 µM
TGI (MOLT-4 leukemia): > 100 µM

Oc1cc(F)cc2cccnc12
TGI (TK-10 renal): > 100 µM
TGI (MCF7 breast): > 39.7 µM
TGI (U251 CNS): > 100 µM
TGI (IGROV1 ovarian): 3.99 µM
TGI (OVCAR-5 ovarian): > 100 µM
TGI (NCI-H226 lung): > 100 µM
TGI (HOP-62 NSCLC): > 100 µM
TGI (NCI/ADR-RES ovarian): 6.74 µM
TGI (SK-MEL-5 melanoma): 13.4 µM
TGI (SF-295 CNS): > 100 µM
TGI (OVCAR-4 ovarian): > 100 µM
TGI (HOP-92 NSCLC): 3.1 µM
TGI (MDA-MB-231 breast): 32.9 µM
TGI (BT-549 breast): 70.2 µM
TGI (SK-MEL-2 melanoma): > 100 µM
TGI (NCI-H522 lung): 3.16 µM
TGI (SNB-19 CNS): > 100 µM
TGI (OVCAR-8 ovarian): > 100 µM
TGI (T-47D breast): > 74.7 µM
TGI (A549 NSCLC): > 50.8 µM
TGI (A498 renal): > 68.1 µM
TGI (HCT-15 colon): > 100 µM
TGI (LOX IMVI melanoma): 29.1 µM
TGI (HT29 colon): > 36.7 µM
TGI (SR leukemia): 2.86 µM
TGI (SK-MEL-28 melanoma): > 100 µM
TGI (HL-60(TB) leukemia): 0.454 µM
TGI (M14 melanoma): 22.1 µM
TGI (HCC-2998 colon): > 100 µM
TGI (UACC-62 melanoma): > 42.6 µM
TGI (NCI-H23 lung): 18.2 µM
TGI (MALME-3M melanoma): > 100 µM
TGI (K-562 leukemia): 1.15 µM
TGI (PC-3 prostate): > 100 µM
TGI (SF-539 CNS): 30 µM
TGI (EKVX NSCLC): > 100 µM
TGI (MDA-N): > 100 µM
TGI (NCI-H460 lung): 29.3 µM
TGI (MDA-MB-435): > 100 µM
TGI (SK-OV-3 ovarian): > 100 µM
TGI (ACHN renal): > 92.1 µM
TGI (RPMI-8226 leukemia): 1.17 µM
TGI (CCRF-CEM leukemia): 0.656 µM
TGI (SNB-75 CNS): > 100 µM
TGI (UO-31 renal): > 100 µM
TGI (COLO 205 colon): > 53.4 µM
TGI (HS 578T breast): > 100 µM
TGI (UACC-257 melanoma): 4.29 µM
TGI (HCT-116 colon): > 20.9 µM
TGI (CAKI-1 renal): > 100 µM
TGI (SW-620 colon): > 100 µM
TGI (SN12C renal): > 94.3 µM
TGI (DU-145 prostate): > 100 µM
TGI (786-0 renal): > 100 µM
TGI (RXF 393 renal): 46.4 µM
TGI (KM12 colon): > 100 µM
TGI (MOLT-4 leukemia): 1.97 µM
